The results in this text go back to patent publication US8598173B2, “1-[(6,7-substituted alkoxyquinoxalinyl)aminocarbonyl]-4-(hetero)arylpiperazine derivatives for treating tumors” (Korea Research Institute of Chemical Technology, priority 2004, dated 2013).

For one test, the system named is HepG2 (liver). In words: Cell growth inhibition assay (SRB), HepG2. Type of test: cell-based. Conditions: Homo sapiens; SRB method, 96 hours incubation, HepG2 (liver); read-out: IC50, HepG2. On the procedure: (§1) OVCAR-3, MCF-7, PC3, HepG2, A549, HT-29 and MKN-45 were grown in RPMI1640 medium (Invitrogen, Carlsbad, Calif.) supplemented with 10% fetal bovine serum (‘FBS’), 1 mM sodium pyruvate, 10 mM HEPES and 100 U/ml penicillin and […] streptomycin (‘P/S’). MDA-MB-231, HCT116, UMRC2, Caki-1, PANC-1 and HEK293 cells were maintained in Dulbecco's modified Eagle's medium (‘DMEM’, Invitrogen) supplemented with 10% FBS, P/S, 10 mM HEPES and 2 mM L-glutamine. HUVEC was maintained in M199 supplemented with basic fibroblast growth factor (‘bFGF’) […] and FBS 20%. All cells were incubated at 37° C. under humidified 5% CO2.
(§2) The growth inhibition of the substituted quinoxalin-piperazine compounds against a variety of human tumor cells was evaluated. The relative importance of particular substituent groups on the compounds was also studied. The substituted piperazine derivative compounds, prepared as described above, were tested, along with DMSO as a control.
(§3) The growth inhibition assay of various compounds against human tumor cell lines was performed using the Sulforhodamine B (‘SRB’) method (Skehan et al., J. National Cancer Institute, 1990, 82, 1107-1112). […] Triplicate wells were used for each treatment. The cells were incubated with the various compounds for 96 hours at 37° C. in a humidified 5% CO2 atmosphere. After 96-hour incubation, cells were fixed with 10% trichloroacetic acid (‘TCA’), incubated for 1 hour at 4° C., and washed 3 times with tap water. Subsequently cells were stained with 0.4% sulforhodamine B in 1% acetic acid for 30 minutes, washed 4 times with 1% acetic acid, and air-dried again. After 5 minutes agitation in 10 mM Tris solution, the absorbance of each well was measured at 530 nm using Benchmark Plus Microplate reader (Bio-Rad Laboratories, Hercules, Calif.).
(§4) To translate the OD530 values into the number of live cells in each well, the OD530 values were compared to those on standard OD530-versus-cell number curves generated for each cell line. The percent survival was calculated using the formula: % Survival=live cell number[test]/live cell number[control]×100
(§5) The IC50 values were calculated by non-linear regression analysis.

Another test relates to PC3 (prostate). Briefly: Cell growth inhibition assay (SRB), PC3. Conditions: Homo sapiens; SRB method, 96 hours incubation, PC3 (prostate); read-out: IC50, PC3. Type of test: cell-based. How it is done: as §1, §2, §3, §4, §5
A further test deals with UMRC2 (kidney). In words: Cell growth inhibition assay (SRB), UMRC2. Type of test: cell-based, human. Particulars: Homo sapiens; SRB method, 96 hours incubation, UMRC2 (kidney); read-out: IC50, UMRC2. In outline: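 96 h compound exposure, 37 °C/5% CO2, triplicates; fix 10% TCA 1 h 4 °C; stain 0.4% SRB 30 min; solubilize 10 mM Tris; OD530. Cell number from standard curves, % survival vs DMSO, IC50 non-linear regression.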
Background: The SRB assay estimates cell density from bound dye.

The next test relates to HT-29 (colon). In words: Cell growth inhibition assay (SRB), HT-29. Type of test: cell-based. Conditions: Homo sapiens; SRB method, 96 hours incubation, HT-29 (colon); read-out: IC50, HT-29. On the procedure: as §1, §2, §3, §4, §5
The next test has as its system PANC-1 (pancreas). In words: Cell growth inhibition assay (SRB), PANC-1. Type of test: cell-based, human. Particulars: Homo sapiens; SRB method, 96 hours incubation, PANC-1 (pancreas); read-out: IC50, PANC-1. The procedure, abridged:
(§6)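 Growth inhibition was measured by the sulforhodamine B method after cells were incubated with compounds for 96 hours at 37 °C. Absorbance at 530 nm was converted to cell numbers using standard curves for each line, and IC50 values came from non-linear regression of percent survival against DMSO controls.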

The subject of a further test is MKN-45 (stomach). In words: Cell growth inhibition assay (SRB), MKN-45. Type of test: cell-based. Particulars: Homo sapiens; SRB method, 96 hours incubation, MKN-45 (stomach); read-out: IC50, MKN-45. How it is done:
as §1, §2, §3, §4, §5

The next test deals with Caki-1 (kidney). Briefly: Cell growth inhibition assay (SRB), Caki-1. Type of test: cell-based. Conditions: Homo sapiens; SRB method, 96 hours incubation, Caki-1 (kidney); read-out: IC50, Caki-1. On the procedure:
as §1, §2, §3, §4, §5

The next test relates to A549 (lung). In words: Cell growth inhibition assay (SRB), A549. Type of test: cell-based. Conditions: Homo sapiens; SRB method, 96 hours incubation, A549 (lung); read-out: IC50, A549. On the procedure:
as §1, §2, §3, §4, §5

The subject of the next test is HCT116 (colon). In words: Cell growth inhibition assay (SRB), HCT116. Particulars: Homo sapiens, HCT-116; SRB method, 96 hours incubation, HCT116 (colon); read-out: IC50, HCT116. Type of test: cell-based. How it is done: as §1, §2, §3, §4, §5
Another test deals with OVCAR-3 (ovary). Briefly: Cell growth inhibition assay (SRB), OVCAR-3. The class given is cell-based. Particulars: Homo sapiens; SRB method, 96 hours incubation, OVCAR-3 (ovary); read-out: IC50, OVCAR-3. On the procedure: as §1, §2, §3, §4, §5
Test [1] has as its system MCF-7 (breast, hormone-dependent). In words: Cell growth inhibition assay (SRB), MCF-7. The class given is cell-based. Conditions: Homo sapiens, MCF7; SRB method, 96 hours incubation, MCF-7 (breast, hormone-dependent); read-out: IC50, MCF-7. How it is done: as §1, §2, §3, §4, §5
The subject of test [2] is HEK293 (human embryonic kidney). Briefly: Cell growth inhibition assay (SRB), HEK293. Type of test: cell-based. Conditions: SRB method, 96 hours incubation, HEK293 (human embryonic kidney); read-out: IC50, HEK293. How it is done: as §1, §2, §3, §4, §5
The subject of another test is MDA-MB-231 (breast). In words: Cell growth inhibition assay (SRB), MDA-MB-231. Conditions: Homo sapiens; SRB method, 96 hours incubation, MDA-MB-231 (breast); read-out: IC50, MDA-MB-231. Type of test: cell-based, human. In outline: as §6
For test [3], the system named is Huvec (human umbilical vein endothelial cells). In words: Cell growth inhibition assay (SRB), Huvec. Particulars: SRB method, 96 hours incubation, read-out: IC50, Huvec. Type of test: cell-based. How it is done: as §1, §2, §3, §4, §5
The subject of the next test is SK-OV-3 (ovary). In words: Cell growth inhibition assay (SRB), SK-OV-3. Particulars: Homo sapiens; SRB method, 96 hours incubation, SK-OV-3 (ovary); read-out: IC50, SK-OV-3. Type of test: cell-based. How it is done: as §1, §2, §3, §4, §5

pIC50: −log10 of the molar value.

As a reminder, the pIC50 is the IC50 on a negative log10 scale, so that one unit is a factor of ten.

Consider `COc1nc2cc(F)ccc2nc1NC(=O)N1CCN(c2cc(C)cc(C)c2)CC1` [Compound 94, 1-[(6-Fluoro-3-methoxyquinoxalin-2-yl)aminocarbonyl]-4-(3,5-dimethylphenyl)piperazine], for which the pIC50 was 6.32 with HepG2 (liver); 6.15 in the test on PC3 (prostate); 6.49 with UMRC2 (kidney); 6.05 in the test on HT-29 (colon); 6.25 in the test on PANC-1 (pancreas); 6.60 in the test on MKN-45 (stomach). The pIC50 with Caki-1 (kidney) was 6.48; with A549 (lung) it was 6.38; in the test on HCT116 (colon), 6.40; in the test with OVCAR-3 (ovary), 6.54; in test [1], 6.44; in test [2], 6.24. Also, the pIC50 is 6.39 with MDA-MB-231 (breast), 6.80 in test [3] and 6.30 in the test on SK-OV-3 (ovary).
On to `COc1nc2cc(C)ccc2nc1NC(=O)N1CCN(c2cc(C)cc(C)c2)CC1` [Compound 136, 1-[(3-Methoxy-6-methylquinoxalin-2-yl)aminocarbonyl]-4-(3,5-dimethylphenyl)piperazine], for which the pIC50 was 6.72 in the test with HepG2 (liver); 6.60 in the test with PC3 (prostate); 7.24 with UMRC2 (kidney); 6.62 in the test with HT-29 (colon); 6.55 in the test with PANC-1 (pancreas); 6.74 in the test on MKN-45 (stomach). The pIC50 with Caki-1 (kidney) is 6.89; in the test with A549 (lung), 6.68; in the test with HCT116 (colon), 6.70; with OVCAR-3 (ovary), 6.85; in test [1], 6.68; in test [2] it was 6.62. Besides, the pIC50 in the test with MDA-MB-231 (breast) was 7.35; in test [3], 6.82; in the test with SK-OV-3 (ovary), 7.00.
